Our source for the logD and IC50 values is ChEMBL document CHEMBL1129133 (Bioorg Med Chem Lett, 1996).

The nature of data set [1]: Lipophilicity was determined. The format is physicochemical. As to conditions: octanol/water.
The target of data set [2] is cGMP-specific 3',5'-cyclic phosphodiesterase (Homo sapiens, UniProt O76074). The data set can be described thus: Inhibition of Phosphodiesterase 5 from human corpus cavernosum.
The target in another data set is Phosphodiesterase 1 (Rattus norvegicus, UniProt Q63421+Q9EPR9+Q01066). The data set can be described thus: Inhibition of Phosphodiesterase 1 from rat liver.
The target of another data set is Phosphodiesterase 3 (Homo sapiens, UniProt Q14432+Q13370). The data set can be described thus: Inhibition of Phosphodiesterase 3 from rabbit platelets. More on the design: species or system Oryctolagus cuniculus. To be noted: target entry is the homologue from another species.

Consider `CCCc1nn(C)c2c(=O)[nH]c(-c3cc(S(=O)(=O)N4CCN(C)CC4)ccc3OCC)nc12`, for which, in data set [1], the logD – broadly, the decadic logarithm of the distribution of all forms, ionised or not, between an organic phase and buffer at a given pH – was determined as 2.7. In the case of `CCCc1n[nH]c2c(O)nc(-c3ccccc3OCC)nc12`, the IC50 (in general, the concentration that inhibits the measured activity by half) in data set [2] stood at 0.082 µM; on Phosphodiesterase 1, 0.86 µM. Molecule `CCCc1n[nH]c2c(O)nc(-c3ccccc3O)nc12` yielded an IC50 on Phosphodiesterase 3 of more than 100 µM. For the molecule `CCCc1n[nH]c2c(=O)[nH]c(-c3ccccc3)nc12`, the IC50 at Phosphodiesterase 3 worked out at 63 µM.

Turning to `CCCc1nn(C)c2c(O)nc(-c3cc(S(=O)(=O)N4CCN(C(N)=O)CC4)ccc3OCC)nc12`, the logD in data set [1] worked out at 2.3. Moreover, the IC50 at Phosphodiesterase 3 is 34 µM; on Phosphodiesterase 1, 0.11 µM. `CCOc1ccccc1-c1nc2c(C)nn(C)c2c(=O)[nH]1`: the IC50 was more than 100 µM against Phosphodiesterase 3 and 3.3 µM at Phosphodiesterase 1. Regarding `CCCc1nn(C)c2c(=O)[nH]c(-c3ccccc3[N+](=O)[O-])nc12`, the IC50 against Phosphodiesterase 3 is more than 100 µM. Same read-out and setting: to `CCCc1nn(C)c2c(=O)[nH]c(-c3ccccc3OCC3CC3)nc12` belongs 47 µM; to `CCCc1nn(C)c2c(=O)[nH]c(-c3ccccc3NS(C)(=O)=O)nc12`, 83 µM. In data set [1], `CCCc1nn(C)c2c(=O)[nH]c(-c3ccccc3OCC)nc12` came in with a logD of 4. The 50% inhibitory concentration (IC50) was more than 100 µM on Phosphodiesterase 3, 0.027 µM in data set [2] and 0.79 µM against Phosphodiesterase 1.

In data set [1], `CCCc1nn(C)c2c(=O)[nH]c(-c3cc(S(=O)(=O)N4CCNCC4)ccc3OCC)nc12` gave a logD of 1.5. Further, the IC50 on Phosphodiesterase 3 was more than 100 µM; against Phosphodiesterase 1 it was 0.39 µM. The corresponding values for `CCCc1nn(C)c2c(=O)[nH]c(-c3cc(S(=O)(=O)N4CCN(CCO)CC4)ccc3OCC)nc12` [LODENAFIL] are 2, 62 µM and 0.46 µM.

Turning to `CCCOc1ccccc1-c1nc2[nH]nnc2c(=O)[nH]1` [ZAPRINAST], the IC50 at Phosphodiesterase 3 was more than 100 µM; against Phosphodiesterase 1, 9.4 µM.
